Test [1] in a line: Unspecified biological assay. Conditions: assay not specified.
For the next test, the system named is 3T3L1 cells. In words: Adipogenesis of 3T3L1 cells, Oil Red O staining for lipid accumulation. To be noted: 3T3L1 cells differentiated for eight days in increasing concentrations. It is filed as cell-based. From the text: FIG. 1 includes eight micrographs showing that the inhibition of BET protein family members blocks adipogenesis in a dose dependent manner in 3T3L1 cells, which is a cell line that is widely used as a model for adipogenesis. […] Following drug treatment cells were stained with Oil Red O as a measure of lipid accumulation that indicates the degree of adipocyte differentiation.
3T3L1 cells are a well characterized cell type that can be differentiated into fat cells that contain large lipid droplets. […] The cells were differentiated for eight days. On the final day, the cells were stained with Oil Red O, which stains for lipid accumulation in the cells.

In test [2] the test system is genes that control fat accumulation in liver. The test is described as follows: Liver RNA expression of genes that control fat accumulation in ob/ob mice. It is filed as in vivo, mouse. Conditions: two weeks of treatment. The protocol: Following treatment, the organs were harvested and liver RNA was isolated to measure gene expression profiles. The expression levels of a panel of genes that function in the control of fat accumulation in liver were measured.

Another test relates to PPARγ. The test is described as follows: PPARγ gene expression in 3T3L1 cells during adipocyte differentiation (RT-PCR). Conditions: 500 nM, first four days of differentiation. The test is classed as cell-based. The protocol: (§1) C/EBPα and PPARγ are essential, positive regulators of adipogenesis. […] Results were obtained using RT-PCR.
(§2) Gene expression levels of two key proteins that function in fat cell differentiation, C/EBPα and PPARγ, were measured over the first four days of differentiation.

Test [3] deals with ob/ob mice. In words: Liver and subcutaneous fat weight and liver H&E histology in ob/ob mice.
Protocol: The sections were stained with hematoxylin and eosin.
Five week old Ob/ob mice were treated with either vehicle (control) or a chemical inhibitor of the BET protein family (JQ) for approximately two weeks. Following treatment the mice were euthanized and organs were harvested and weighed. The weight of the livers and subcutaneous fat were determined.
A further test deals with C/EBPα. The test is described as follows: C/EBPα gene expression in 3T3L1 cells during adipocyte differentiation (RT-PCR). The test is classed as cell-based. To be noted: 500 nM, first four days of differentiation. The protocol:
as §1, §2

Test [4] has as its system ob/ob mice. The test is described as follows: Weight gain, food intake and feed efficiency in ob/ob mouse obesity model. It is filed as in vivo. To be noted: 50 mg/kg, 14 days. The source says: FIGS. 3A-3E are graphs showing that inhibition of BET family members blocks weight gain in ob/ob mice, a murine obesity model that lacks leptin.
Ob/ob mice are a well established mouse obesity model that gains weight rapidly on a normal mouse chow diet. […] Without wishing to be bound by theory, it is likely that the disparity is due to differences in the way that ob/ob mice treated with JQ are metabolizing food relative to untreated ob/ob mice.

The test system of another test is C57B/6 male mice. The test is described as follows: Insulin tolerance test in C57B/6 mice on high fat diet. It is filed as in vivo, mouse. The protocol: FIG. 9B is a graph of the area under the curve (AUC) of the data in FIG. 9A.
8 week old C57B/6 male mice were started on a high fat diet containing 60% kcal fat. […] Body weight was measured every week. The mice were then examined for the degree of insulin resistance by insulin tolerance testing. […] Following insulin injection blood glucose was measured at the indicated time points.

Setting [5] is: approximately two weeks of treatment.

As for `Cc1sc2c(c1C)C(c1ccc(Cl)cc1)=N[C@@H](CC(=O)NN)c1nnc(C)n1-2` [Compound 3], the “activity in at least one biological assay” value in test [1] is reported as “showed activity”.

As for `Cc1sc2c(c1C)C(c1ccc(Cl)cc1)=N[C@@H](CC(=O)N/N=C/c1ccc(O)cc1)c1nnc(C)n1-2` [Compound 4], in test [1], the “activity in at least one biological assay” value is “showed activity”.

Take `Cc1sc2c(c1C)C(c1ccc(Cl)cc1)=N[C@@H](CC(=O)OC(C)(C)C)c1nnc(C)n1-2` [JQ1 (S) enantiomer, (S)-tert-Butyl 2-(4-(4-chlorophenyl)-2,3,9-trimethyl-6H-thieno[3,2-f][1,2,4]triazolo[4,3-a][1,4]diazepin-6-yl)acetate]: the “adipogenesis / lipid accumulation (Oil Red O staining)” value in the test with 3T3L1 cells is reported as “inhibited lipid accumulation”; in the test with 3T3L1 cells (listed as JQ (S) enantiomer) it was “inhibited adipogenesis in a dose dependent manner”.

As for `Cc1sc2c(c1C)C(c1ccc(Cl)cc1)=N[C@@H](CC(=O)OC(C)(C)C)c1nnc(C(F)(F)F)n1-2` [JQ11], in test [2], the “liver expression of ACC beta” value is given as “reduced the expression”, the “liver expression of DGAT” value is “reduced the expression”, the “liver expression of FAS” value is reported as “not statistically significant” and the “liver expression of PPARγ2” value was “reduced the expression”. Further, in test [2], the “liver expression of SCD1” value is “reduced the expression” and the “liver expression of SREBP” value is “reduced the expression”.

As to `Cc1sc2c(c1C)C(c1ccc(Cl)cc1)=N[C@H](CC(=O)OC(C)(C)C)c1nnc(C)n1-2` [JQ (R) enantiomer], the “adipogenesis / lipid accumulation (Oil Red O staining)” value in the test with 3T3L1 cells is given as “no effect on the generation of lipid”.

As for `Cc1sc2c(c1C)C(c1ccc(Cl)cc1)=N[C@@H](CC(=O)OC(C)(C)C)c1nnc(C)n1-2` [JQ], the “induction of PPARγ expression” value in the test on PPARγ is listed as “significantly blocked the induction”. In the test with ob/ob mice [3] (setting [5]), the liver weight entry is reported as “statistically significant reductions” and the subcutaneous fat weight result is reported as “statistically significant reductions”. The “hepatic steatosis / liver histology (H&E)” value with ob/ob mice [3] (two week treatment) is given as “complete block in hepatic steatosis”. In addition, in the test with C/EBPα, the “induction of C/EBPα expression” value was “significantly blocked the induction”. Further, in the test with ob/ob mice [4], the food intake result is listed as “mildly inhibited” and the weight gain entry is listed as “blocked weight gain”. Also, the “blood glucose after insulin injection” value in the test with C57B/6 male mice (7 weeks high fat diet and 50 mg/kg daily, 4 h fast, insulin 0.5 U/kg intraperitoneal) is recorded as “sustained decrease in blood glucose up to 2 hours”. For the same compound, in the test on C57B/6 male mice (2 hour time course after insulin, p<0.05), the “area under the curve for change in blood glucose” value is “statistically significant decrease”.

The record behind these values is patent US20130252331A1, “COMPOSITIONS AND METHODS FOR MODULATING METABOLISM” (priority 2010, published 2013).
